Reference: patent publication US20100004303A1, “TREATMENT OF ENDOCRINE DYSFUNCTION USING IRON CHELATORS” (NOVARTIS AG, priority 2006, published 2010)

Key:
[1] = system: HJV−/− mice with iron overload; experiment: Pancreas iron (ICP-OES) in HJV−/− mice with iron overload; type: in vivo
Protocol: The spontaneous iron loading and the effect of 4-[3,5-bis(2-hydroxyphenyl)-[1,2,4]triazol-1-yl]benzoic acid (Compound I) has been examined upon the removal of iron in HJV−/− mice with iron overload.
Methods: Inductively-Coupled Plasma Optical Emission Spectrometry (ICP-OES, measurement of elemental iron) determinations in spleen and pancreas were performed at week 8 (study start), 14, 20 and 28 in HJV−/− and wild type (wt) mice (n=6−8). Starting at week 20 three groups of HJV−/− animals received daily 0 (vehicle), 30 or 100 mg/kg of 4-[3,5-bis(2-hydroxyphenyl)-[1,2,4]triazol-1-yl]benzoic acid, control wt-mice remained untreated. Iron loading was observed up to 28 weeks, including vehicle group, and the effects of 4-[3,5-bis(2-hydroxyphenyl)-[1,2,4]triazol-1-yl]benzoic acid were assessed by comparing the 28-week groups. MRI R2* measurements were performed using a 4.7 MR imager.

pancreatic Min6 cells = experiment: Labile iron exposure of pancreatic Min6 cells: iron accumulation, cell damage, viability; type: cell-based
Description: (§1) Among the functions affected by metal-evoked ROS are cell permselectivity (calcein leakage), mitochondrial membrane potential (JC1 test), electron transport activity (Alamar Blue) and cell viability (calcein-propidium iodide). It can be observed that administration of deferasirox at therapeutically achievable doses ([…]): […]

pituitary Att20 cells = experiment: Labile iron exposure of pituitary Att20 cells: iron accumulation, cell damage, viability; type: cell-based
Description: as §1

At20 pituitary cells = experiment: Cytoprotective effect on acutely iron-overloaded At20 pituitary cells (calcein retention, Alamar-Blue, ACTH levels); type: cell-based; conditions: cell culture conditions, pharmacological chelator concentrations
Description: A major cause of biological damage associated with tissue iron accumulation is the cellular acquisition of circulating labile plasma iron (LPI) by endocytic mechanisms and ensuing metal-catalyzed oxidations. Endocrine cells are presumed to have endocytic abilities and/or high susceptibility to the formation of reactive oxygen intermediates (ROIs), particularly those generated in the presence of labile iron. As these properties might be implicated in the early onset of endocrine dysfunctions observed in transfusional hemosiderosis, a major goal of iron chelation therapy is to prevent iron ingress into endocrine cells and ensuing toxicity and/or removal of cell accumulated iron. Such properties of chelators have been afforded in cardiac cells (Glickstein et al, 2006, Blood In press) by treating LPI-carrying plasma with pharmacological attainable concentrations of orally active iron chelators in clinical practice. […] It has been explored here whether addition of 4-[3,5-bis(2-hydroxyphenyl)-[1,2,4]triazol-1-yl]benzoic acid could rescue acutely-iron-overloaded At20 pituitary cells from iron-toxicity, using fluorescence-plate reader and microscopy-imaging for live monitoring of cell functions and assessing toxicity in terms of: 1. cell integrity (calcein cell retention assay) 2. metabolic activities (mitochondrial Alamar-Blue assay) and 3. intracellular (ACTH) hormone levels.

Diet-induced obese mice = experiment: Oral glucose tolerance test and plasma insulin in diet-induced obese mice; type: in vivo; conditions: compared to the control animals
Protocol: Diet-induced obese mice are used for the study at 21-23 weeks of age. On the first day of the study, animals are fasted at 7:30 a.m. Body weight measurement and basal blood sample collection are conducted at 10:30 a.m. Plasma glucose values are then determined. Animals were assigned into 4 groups (n=10/group) with the plasma glucose values and body weights matched between the 4 groups. At 12 pm, the animals are dosed orally with vehicle (water) or the Compound I at 30 mg/kg or […] respectively. At 1:00 p.m. a blood sample (at 0 min) is taken followed by an oral glucose tolerance test (OGTT) at 1 g/kg (20% glucose in water) at a dose volume of 5 ml/kg. Blood samples are collected at 30, 60 and 120 min following the glucose administration. The animals are refed after the OGTT. […]
Blood samples are taken during the study via tail bleeding. Plasma glucose concentrations are determined using a glucose meter (Ascensia Elite, Bayer Corp., Mishawaka, Ind.). […] Plasma insulin and glucagons levels are determined by Luminex assays using Mouse Endocrine Lincoplex kit (Linco Research, Inc., St. Charles, Mo.). […] Plasma triglyceride, fatty acid and total cholesterol levels are determined using a fluorescent assay based on Amplex Red kit (Molecular Probes, Eugene, Oreg.). […] Effects on cardiovascular diseases can also be assessed by further analysis on treated animals.

subjects with IGM = experiment: Multi-center, double-blind, randomized study in subjects with IGM; type: in vivo, human; conditions: 8 weeks of treatment
Description: Favorable effects can be verified that confirm that Compound I can restore early phase insulin secretion and reduce post-prandial glucose levels in subjects with IGM, or can prevent or delay the onset of Type 2 diabetes and cardiovascular diseases in subjects with IGM. A multi-center, double-blind, parallel group, randomized study can be conducted in subjects with IGM in order to evaluate the incidence of confirmed hypoglycemia and the effects on prandial glucose associated with the administration of Compound I, or placebo before each main meal during 8 weeks of treatment. […]
Corresponding dosages of Compound I are administered daily depending on the number of main meals (breakfast, lunch, snack, dinner). […] HbA1c is to be measured at baseline and after 8 weeks of treatment (fasting glucose and fructosamine). Samples of blood are to be drawn at 10, 20, […], 60, 120, and 180 minutes after drug administration (time 0) and the glucose and insulin levels to be measured. […]

[2] = model systems and humans; Hershko 2001, Nisbet Brown 2003; cited from earlier work
[3] = 30-100 μM, incubated prior to or post iron-loading (acutely or chronically)
[4] = 30-100 μM, present in the iron loading medium
[5] = 30-100 μm, incubated prior to or post iron-loading (acutely or chronically)

In the case of O=C(O)c1ccc(-n2nc(-c3ccccc3O)nc2-c2ccccc2O)cc1 [Compound I, 4-[3,5-Bis-(2-hydroxyphenyl)-[1,2,4]-triazol-1-yl]benzoic acid], the “pancreas iron ± SEM” value ([1]; 30 mg/kg daily from week 20, 28-week group, n = 7) is reported as 4.72 ± 0.65 mg/g dry weight, the “pancreas iron ± SEM” value ([1]; 100 mg/kg daily from week 20, 28-week group, n = 6) is reported as 3.54 ± 0.55 mg/g dry weight and the “pancreas iron levels, effect in words” value ([1]; 100 mg/kg dose) is reported as “clear trend to lower levels”. The “pancreatic iron load, effect in words” value ([1]; within 8 weeks of treatment) was “trend to improvement of pancreatic iron load”, the cell viability (pancreatic Min6 cells; [3]) was “increases cell viability” and the “labile iron raising in cells” value (pancreatic Min6 cells; [4]) was “largely prevents labile iron from raising in cells”. For the same compound, the iron-evoked cell damage (pancreatic Min6 cells; [5]) was “reduces iron-evoked cell damage”, the cell viability (pituitary Att20 cells; [3]) was “increases cell viability” and the “labile iron raising in cells” value (pituitary Att20 cells; [4]) was “largely prevents labile iron from raising in cells”. The iron-evoked cell damage (pituitary Att20 cells; [5]) was “reduces iron-evoked cell damage”, the “At20 endocrine cell viability and functional properties compromised by iron-catalyzed formation of ROIs” value (At20 pituitary cells) was “can preserve both At20 endocrine cell viability and functional properties” and the plasma insulin levels (Diet-induced obese mice) was “can show a lowering in plasma insulin levels”. For the same compound, the “2 hour prandial glucose levels, HBA1c and fructosamine levels” value (subjects with IGM) was “can be reduced”, the “early phase insulin secretion” value (subjects with IGM) was “can be restored” and the “selective removal of iron” value [2] was “effective in the selective removal of iron”.
